Assay results reported in patent US20120060243A1, “Herbicide-Resistant AHAS-Mutants and Methods of Use” (priority 2008, published 2012).
Where two headings read alike, the source gives them in different places.

Legend:
Type in all cases: in vivo, Brassica napus
BN02 (wild-type) = assay: Foliar spray response of whole plants, FIG. 2; conditions: 210 g ai/ha + 0.5% v/v Merge, 3-4 leaf stage, three weeks after treatment, line BN02
Procedure: (§1) In addition, B. napus plants (3-4 leaf stage) containing the double mutant were analyzed for response to treatment with imazamox compared to wild type plants. Lines BN02 (wild-type) and BnCL131A1 (AHAS III A122T:S653N, double mutant) were treated with either 210 g ai/ha imazamox supplemented with 0.5% v/v Merge by foliar spray or left unsprayed as checks. FIG. 2 provides the results for plants BN02 (top row) and BnCL131A1 (bottom row).

[1] = tested on: BnCL131A1 (AHAS III A122T:S653N, double mutant); assay: Foliar spray response of whole plants, FIG. 2; conditions: 210 g ai/ha + 0.5% v/v Merge, 3-4 leaf stage, three weeks after treatment, line BnCL131A1
Procedure: as §1

[2] = tested on: BnCL131A1.0 (AHAS III A122T S653N double mutant); assay: Herbicide injury rating, Table 4; conditions: 3-4 leaf stage, 2 weeks post spray, line BnCL131A1.0
Procedure: (§2) Herbicide Injury Rating for Brassica napus Plants Treated with Imazamox. Plants for lines BN02 (wild type), two lines of BnCL131A1 (AHAS III A122T S653N double mutant; BnCL131A1.0 and BnCL131A1.18), PM1/PM2 (commercial two gene check: AHAS I S653N & AHAS III W574L) were grown […] Merge. Herbicide injury was evaluated 2 weeks post spray on 12 plants per line. The results are presented as mean injury±one standard error of the mean in Table 4 below. The results cover one planting and spray for all lines and the values for ±two standard error of the mean are also provided.

[3] = tested on: BnCL131A1.18 (AHAS III A122T S653N double mutant); assay: Herbicide injury rating, Table 4; conditions: 3-4 leaf stage, 2 weeks post spray, line BnCL131A1.18
Procedure: as §2

[4] = tested on: PM1/PM2 (commercial two gene check: AHAS I S653N & AHAS III W574L); assay: Herbicide injury rating, Table 4; conditions: 3-4 leaf stage, 2 weeks post spray, line PM1/PM2
Procedure: as §2

[5] = tested on: AHASL1A-A122T, A122T (Ho); conditions: 18 Days After Treatment, line AHASL1A-A122T; for Mean Percent Crop Phytotoxicity (% Crop Injury): field, 2-4 leaf stage
Excerpt: (§3) Hand-crossed hybrids were produced in the greenhouse between two IMI-tolerant spring Brassica napus parental lines: “BnCL131A1” (homozygous for the A genome IMI-tolerant mutation AHASL1A-A122(At)T-S653(At)N) and “PM1PM2” (homozygous for the A genome AHAS-inhibitor tolerant mutation AHASL1A-W574(At)L (PM2) plus the C genome AHAS-inhibitor tolerant mutation AHASL1C-S653(At)N(PM1)). The resulting heterozygous hand-crossed hybrid line, “PM1PM2/BnCL131A 1” (heterozygous for the stacked mutations: AHASL1A-A122(At)T-S653(At)N, AHASL1A-W574(At)L (PM2), AHASL1C-S653(At)N(PM1)) was field tested together with lines each containing only one AHAS-inhibitor tolerant mutation (homozygous or heterozygous) and several spring Brassica napus checks.
(§4) The three repetition trial was conducted in Simcoe, N. Dak., and used a randomized split block design. The trial was designed to measure the percent phytotoxicity (% crop injury) of the different entries under 5 different imidazolinone herbicide treatment rates. Plants were sprayed at the 2-4 leaf stage at a volume of 100 liters/ha. The imidazolinone herbicide rates used were as follows (Imazamox=BEYOND™ 120 g/I LC (BAS 72001H); NIS=INDUCE™ 90 (90% non-ionic surfactant; Helena Chemical Co., Collierville, Tenn.):
(§5) Crop Injury Ratings were determined in the field by assessing each plot in the trial for the level of phytotoxicity (percent crop injury) on a scale from 0-100% at 18 days after treatment. Mean values for each entry across the three replications along with their statistical significance (ANOVA) are presented in Table 6 (Ho=homozygous; He=heterozygous). Each value presented in Table 6 is the mean of three replications.
(§6) The percent phytotoxicity (% crop injury) ratings were transposed into Herbicide Tolerance ratings by subtracting the percent crop injury rating (Table 6) for each line from 100% to obtain the percent herbicide tolerance (Table 7) (Ho=homozygous; He=heterozygous).

Bn WT 1 = assay: Field trial crop phytotoxicity, Simcoe; conditions: 18 Days After Treatment, line Bn WT 1; for Mean Percent Crop Phytotoxicity (% Crop Injury): field, 2-4 leaf stage
Excerpt: as §3, §4, §5, §6

Bn WT 2 = assay: Field trial crop phytotoxicity, Simcoe; conditions: 18 Days After Treatment, line Bn WT 2; for Mean Percent Crop Phytotoxicity (% Crop Injury): field, 2-4 leaf stage
Excerpt: as §3, §4, §5, §6

[6] = tested on: PM1 (AHASL1C-PM1), S653N (Ho); assay: Field trial crop phytotoxicity, Simcoe; conditions: 18 Days After Treatment, line PM1 (AHASL1C-PM1); for Mean Percent Crop Phytotoxicity (% Crop Injury): field, 2-4 leaf stage
Excerpt: as §3, §4, §5, §6

[7] = mean over 0, 35, 70, 140, 210 g ai/ha (N 15)

## COCc1cnc(C2=NC(C)(C(C)C)C(=O)N2)c(C(=O)O)c1 (stereo not drawn) [imazamox]
BN02 (wild-type)
  response to treatment with imazamox (tolerance): nearly non-tolerant
[1]
  response to treatment with imazamox (tolerance): almost completely tolerant
[2]; 35 g ai/ha + 0.5% v/v Merge
  Herbicide injury rating, mean injury ± standard error of the mean: 0.90 ± 0.28
[2]; 70 g ai/ha + 0.5% v/v Merge
  Herbicide injury rating, mean injury ± standard error of the mean: 1.20 ± 0.29
[2]; 210 g ai/ha + 0.5% v/v Merge
  Herbicide injury rating, mean injury ± standard error of the mean: 1.45 ± 0.28
[2]; 420 g ai/ha
  Herbicide injury rating, mean injury ± standard error of the mean: 3.20 ± 0.20
[3]; 35 g ai/ha + 0.5% v/v Merge
  Herbicide injury rating, mean injury ± standard error of the mean: 0.64 ± 0.20
[3]; 70 g ai/ha + 0.5% v/v Merge
  Herbicide injury rating, mean injury ± standard error of the mean: 0.91 ± 0.21
[3]; 210 g ai/ha + 0.5% v/v Merge
  Herbicide injury rating, mean injury ± standard error of the mean: 1.89 ± 0.20
[3]; 420 g ai/ha
  Herbicide injury rating, mean injury ± standard error of the mean: 2.27 ± 0.14
[4]; 35 g ai/ha + 0.5% v/v Merge
  Herbicide injury rating, mean injury ± standard error of the mean: 0.50 ± 0.19
[4]; 70 g ai/ha + 0.5% v/v Merge
  Herbicide injury rating, mean injury ± standard error of the mean: 1.83 ± 0.21
[4]; 210 g ai/ha + 0.5% v/v Merge
  Herbicide injury rating, mean injury ± standard error of the mean: 2.00 ± 0.23
[4]; 420 g ai/ha
  Herbicide injury rating, mean injury ± standard error of the mean: 3.83 ± 0.21
[5]; 35 g ai/ha + 0.25% (v/v) NIS
  Mean Percent Crop Phytotoxicity (% Crop Injury): 70%
[5]; 35 g ai/ha
  Mean Percent Herbicide Tolerance (100% minus percent crop injury): 30.0%
[5]; 70 g ai/ha + 0.25% (v/v) NIS
  Mean Percent Crop Phytotoxicity (% Crop Injury): 78.33%
[5]; 70 g ai/ha
  Mean Percent Herbicide Tolerance (100% minus percent crop injury): 21.7%
[5]; 210 g ai/ha + 0.25% (v/v) NIS
  Mean Percent Crop Phytotoxicity (% Crop Injury): 70%
[5]; 210 g ai/ha
  Mean Percent Herbicide Tolerance (100% minus percent crop injury): 30.0%
[5]; [7]
  Mean Percent Crop Phytotoxicity (% Crop Injury), Mean over rates: 57%
Bn WT 1; 35 g ai/ha + 0.25% (v/v) NIS
  Mean Percent Crop Phytotoxicity (% Crop Injury): 85%
Bn WT 1; 35 g ai/ha
  Mean Percent Herbicide Tolerance (100% minus percent crop injury): 15.0%
Bn WT 1; 70 g ai/ha + 0.25% (v/v) NIS
  Mean Percent Crop Phytotoxicity (% Crop Injury): 96.67%
Bn WT 1; 70 g ai/ha
  Mean Percent Herbicide Tolerance (100% minus percent crop injury): 3.3%
Bn WT 1; 140 g ai/ha + 0.25% (v/v) NIS
  Mean Percent Crop Phytotoxicity (% Crop Injury): 100%
Bn WT 1; 140 g ai/ha
  Mean Percent Herbicide Tolerance (100% minus percent crop injury): 0.0%
Bn WT 1; 210 g ai/ha + 0.25% (v/v) NIS
  Mean Percent Crop Phytotoxicity (% Crop Injury): 98.33%
Bn WT 1; 210 g ai/ha
  Mean Percent Herbicide Tolerance (100% minus percent crop injury): 1.7%
Bn WT 1; [7]
  Mean Percent Crop Phytotoxicity (% Crop Injury), Mean over rates: 76%
Bn WT 2; 35 g ai/ha + 0.25% (v/v) NIS
  Mean Percent Crop Phytotoxicity (% Crop Injury): 95%
Bn WT 2; 35 g ai/ha
  Mean Percent Herbicide Tolerance (100% minus percent crop injury): 5.0%
Bn WT 2; 70 g ai/ha + 0.25% (v/v) NIS
  Mean Percent Crop Phytotoxicity (% Crop Injury): 100%
Bn WT 2; 70 g ai/ha
  Mean Percent Herbicide Tolerance (100% minus percent crop injury): 0.0%
Bn WT 2; 140 g ai/ha + 0.25% (v/v) NIS
  Mean Percent Crop Phytotoxicity (% Crop Injury): 100%
Bn WT 2; 140 g ai/ha
  Mean Percent Herbicide Tolerance (100% minus percent crop injury): 0.0%
Bn WT 2; 210 g ai/ha + 0.25% (v/v) NIS
  Mean Percent Crop Phytotoxicity (% Crop Injury): 100%
Bn WT 2; 210 g ai/ha
  Mean Percent Herbicide Tolerance (100% minus percent crop injury): 0.0%
Bn WT 2; [7]
  Mean Percent Crop Phytotoxicity (% Crop Injury), Mean over rates: 79%
[6]; 35 g ai/ha + 0.25% (v/v) NIS
  Mean Percent Crop Phytotoxicity (% Crop Injury): 66.67%
[6]; 35 g ai/ha
  Mean Percent Herbicide Tolerance (100% minus percent crop injury): 33.3%
[6]; 70 g ai/ha + 0.25% (v/v) NIS
  Mean Percent Crop Phytotoxicity (% Crop Injury): 86.67%
[6]; 70 g ai/ha
  Mean Percent Herbicide Tolerance (100% minus percent crop injury): 13.3%
[6]; 140 g ai/ha + 0.25% (v/v) NIS
  Mean Percent Crop Phytotoxicity (% Crop Injury): 91.67%
[6]; 140 g ai/ha
  Mean Percent Herbicide Tolerance (100% minus percent crop injury): 8.3%
[6]; 210 g ai/ha + 0.25% (v/v) NIS
  Mean Percent Crop Phytotoxicity (% Crop Injury): 91.67%
[6]; 210 g ai/ha
  Mean Percent Herbicide Tolerance (100% minus percent crop injury): 8.3%
[6]; [7]
  Mean Percent Crop Phytotoxicity (% Crop Injury), Mean over rates: 67.33%
